This note sets out measurements from patent publication US10065957B2, “Beta-lactamase inhibitors” (Novartis AG, priority 2016, dated 2018).

Common to all, as to assay type: cell-based
One assay deals with E. coli (CTX-M-15). Kind of assay: microbe, parasite or virus in culture. The conditions noted are these: for MIC of aztreonam with beta-lactamase inhibitor: AZ + BLI at 2 μg/mL; for Activity of Beta-Lactam 5 with beta-lactamase inhibitor: Beta-Lactam 5 + BLI at 2 μg/mL; for MIC of ceftazidime with beta-lactamase inhibitor: Ceft + BLI at 2 μg/mL; for MIC of meropenem with beta-lactamase inhibitor: Mero + BLI at 2 μg/mL. The procedure: (§1) MICs were determined by the broth microdilution method in accordance with Clinical and Laboratories Institute (CLSI) guidelines. In brief, fresh overnight bacterial cultures were suspended in sterile saline, and adjusted to a 0.5 McFarland turbidity standard. Bacterial suspensions were then diluted in cation adjusted Mueller-Hinton Broth (MHB II; BBL) to yield a final inoculum of approximately 5×10^5 colony-forming units (CFU)/mL. A master plate of antibiotics was prepared at a concentration equivalent to hundred-fold the highest desired final concentration in 100% dimethyl sulfoxide (DMSO). The master antibiotic plate was then diluted by serial twofold dilution with a multichannel pipette. The resulting dilution series of compounds were diluted 1:10 with sterile water or a solution of beta-lactamase inhibitor prepared at a concentration equivalent to eleven-fold the desired final concentration in deionized water leading to a 10% DMSO final concentration. A volume of 10 μL of the drug dilution series was transferred to 96-well assay plates. Assay plates were inoculated with 90 μL of bacterial suspensions and incubated at 35° C. for 20 hrs. The assay plates were read using a microtiter plate reader (Molecular Devices) at 600 nm as well as by visual observation with a reading mirror. The lowest concentration of the compound that prevented visible growth was recorded as the MIC.
(§2) Synergy or potentiation of beta-lactam antibiotics through inhibition of Q-lactamases was assessed against an isogenic panel of E. coli strains, each expressing a unique beta-lactamase, and against clinical strains.
(§3) Strain NB27273 (BW25113 pspB::Km^r) was obtained from the Keio transposon insertion collection. The strain has the pspB gene replaced by a kanamycin resistance marker (BW25113 pspB::Km^r). This strain was cured of the transposon in pspB via FLP recombinase using published methodology. The resulting strain, BW25113 pspB, was used as a host for multicopy vectors expressing key beta-lactamases. Multicopy plasmids directing constitutive expression of beta-lactamases were established as follows: Synthetic, codon optimized genes encoding E. coli KPC-2, SHV-12 and CTX-M-15 beta-lactamases were made by DNA2.0 (Palo Alto, Calif.). Each of the synthetic fragments were designed to contain NotI and NcoI restriction sites at their termini, allowing ligation into a NotI/NcoI digested pET28a(+) derivative for protein expression. […] The codon optimized nucleotide sequences and relevant primer recognition information is shown below:
(§4) The PCR products were then digested with XhoI and EcoRI and ligated into similarly digested plasmid pAH63-pstS(BlaP). […] Therefore, expression of beta-lactamases from pAH63-pstS(BlaP) based constructs is constitutive and the signal sequence is provided to direct these proteins to the periplasm. […] These fragments were then digested with XbaI and EcoRI, and each was inserted into pBAD18-kan that had been digested with the same enzymes to generate multicopy vectors expressing KPC-2, SHV-12 and CTX-M-15, respectively. These vectors were transformed into BW25113 pspB to generate strains NB27273-CDY0033 (expressing KPC-2), NB27273-CDY0030 (expressing SHV-12), NB27273-CDY0034 (expressing CTX-M-15) and NB27273-CDY0036 (expressing AmpC). The pBAD18-kan vector also contains the TEM promoter region and signal sequence, (but lacks any intact beta-lactamase genes) and was transformed into BW25113 pspB using standard protocols to generate the control strain NB27273-CDY0026.

Another assay deals with E. coli (KPC-2). The experiment in a line: microbe, parasite or virus in culture. The conditions noted are these: E. coli (KPC-2); for MIC of aztreonam with beta-lactamase inhibitor: AZ + BLI at 2 μg/mL; for Activity of Beta-Lactam 5 with beta-lactamase inhibitor: Beta-Lactam 5 + BLI at 2 μg/mL; for MIC of ceftazidime with beta-lactamase inhibitor: Ceft + BLI at 2 μg/mL; for MIC of meropenem with beta-lactamase inhibitor: Mero + BLI at 2 μg/mL. The procedure:
as §1, §2, §3, §4

A further assay concerns E. coli (SHV-12). Kind of assay: microbe, parasite or virus in culture. The following applies: for MIC of aztreonam with beta-lactamase inhibitor: AZ + BLI at 2 μg/mL; for Activity of Beta-Lactam 5 with beta-lactamase inhibitor: Beta-Lactam 5 + BLI at 2 μg/mL; for MIC of ceftazidime with beta-lactamase inhibitor: Ceft + BLI at 2 μg/mL; for MIC of meropenem with beta-lactamase inhibitor: Mero + BLI at 2 μg/mL. The procedure:
as §1, §2, §3, §4

In another assay the test system is E. coli (TEM-10). The experiment in a line: microbe, parasite or virus in culture. The conditions noted are these: for MIC of aztreonam with beta-lactamase inhibitor: AZ + BLI at 2 μg/mL; for Activity of Beta-Lactam 5 with beta-lactamase inhibitor: Beta-Lactam 5 + BLI at 2 μg/mL; for MIC of ceftazidime with beta-lactamase inhibitor: Ceft + BLI at 2 μg/mL; for MIC of meropenem with beta-lactamase inhibitor: Mero + BLI at 2 μg/mL. Here is the method:
as §1, §2
(§5) Construction of E. coli isogenic strains, NB27273-CDY0105 (OXA-18) and NB27273-CDY0048 (TEM-10). […] The gene encoding OXA-18 was then digested with XhoI and EcoRI and inserted into this vector, from which the gene for GIM-1 had been removed with XhoI and EcoRI.
From this template DNA, three fragments were generated by PCR using the following primer pairs;
This fragment was then digested with XbaI and EcoRI and inserted into pBAD-kan which was also cut with the same enzymes.
(§6) These final vectors for expression of OXA-18 and TEM-10 were transformed into BW25113 pspB to generate strains NB27273-CDY0105 (expressing OXA-18) and NB27273-CDY0048 (expressing TEM-10).

The subject of the next assay is E. coli (OXA-18). The experiment in a line: microbe, parasite or virus in culture. The conditions noted are these: for MIC of aztreonam with beta-lactamase inhibitor: AZ + BLI at 2 μg/mL; for Activity of Beta-Lactam 5 with beta-lactamase inhibitor: Beta-Lactam 5 + BLI at 2 μg/mL; for MIC of ceftazidime with beta-lactamase inhibitor: Ceft + BLI at 2 μg/mL; for MIC of meropenem with beta-lactamase inhibitor: Mero + BLI at 2 μg/mL; for MIC of piperacillin with beta-lactamase inhibitor: Pip + BLI at 2 μg/mL. The procedure:
as §1, §2, §5, §6

Assay [1] deals with K. pneumoniae NB29082 (KPC-2). Kind of assay: Potentiation of piperacillin in beta-lactam resistant clinical isolate. The conditions noted are these: Pip + BLI at 2 μg/mL. The procedure:
as §1, with “MIC. Performance of the assay was monitored by testing aztreonam against laboratory quality control strains in accordance with guidelines of the CLSI.” for “MIC.”
as §2

The subject of a further assay is S. aureus NB01437 (BLA+). The assay is described as above. The following applies: Pip + BLI at 2 μg/mL. The procedure:
as §1, with “MIC. Performance of the assay was monitored by testing aztreonam against laboratory quality control strains in accordance with guidelines of the CLSI.” for “MIC.”
as §2

Assay [2] concerns E. coli ATCC 25922, K. pneumoniae ATCC 43816, P. aeruginosa ATCC 27853. The experiment in a line: Direct antibacterial activity of BLIs alone, summary of Table A. The conditions noted are these: BLI alone, in words. Here is the method: as §1, with “A volume of 10 μL of the drug dilution series was transferred to 96-well assay plates. Assay plates were inoculated with 90 μL of bacterial suspensions and incubated at 35° C. for 20 hrs.” left out, “MIC. Performance of the assay was monitored by testing aztreonam against laboratory quality control strains in accordance with guidelines of the CLSI.” for “MIC.”

As to `O=C1NC[C@@H]2C[C@@H]3CN(C(=O)N3OS(=O)(=O)[O-])[C@H]12.[Na+]` [Example 1, Sodium (4R,5aS,8aS)-2,8-dioxohexahydro-2H-1,4-methanopyrrolo[3,4-d][1,3]diazepin-3(4H)-yl sulfate], the “MIC of aztreonam with beta-lactamase inhibitor” value in the assay with E. coli (CTX-M-15) is not above 0.06 µg/mL; in the assay with E. coli (KPC-2), 0.125 µg/mL; in the assay on E. coli (SHV-12), 0.25 µg/mL; with E. coli (TEM-10), 0.125 µg/mL; in the assay with E. coli (OXA-18), 1 µg/mL. Further, the “Activity of Beta-Lactam 5 with beta-lactamase inhibitor” value was 0.25 µg/mL in the assay on E. coli (CTX-M-15); 0.25 µg/mL with E. coli (KPC-2); 0.25 µg/mL with E. coli (SHV-12); 0.125 µg/mL in the assay with E. coli (TEM-10); 0.25 µg/mL in the assay with E. coli (OXA-18). For the same compound, the “MIC of ceftazidime with beta-lactamase inhibitor” value in the assay on E. coli (CTX-M-15) was determined as 0.25 µg/mL; with E. coli (KPC-2), 0.125 µg/mL; with E. coli (SHV-12) it was 0.25 µg/mL; with E. coli (TEM-10) it was 0.25 µg/mL; in the assay on E. coli (OXA-18), 0.5 µg/mL. Besides, the “MIC of meropenem with beta-lactamase inhibitor” value in the assay with E. coli (CTX-M-15), in the assay with E. coli (KPC-2), in the assay with E. coli (SHV-12), with E. coli (TEM-10) and in the assay on E. coli (OXA-18) was not above 0.06 µg/mL each time. Moreover, the “MIC of piperacillin with beta-lactamase inhibitor” value with E. coli (OXA-18) was 2 µg/mL. Also, the results for the “Activity of piperacillin with beta-lactamase inhibitor” value (in assay [1]; in the assay with S. aureus NB01437 (BLA+)) were 8 µg/mL and 1 µg/mL, respectively. Besides, the direct antibacterial activity result in assay [2] is “does not exhibit much direct antibiotic activity”.

For the compound `NC(=O)[C@@H]1CC[C@@H]2CN1C(=O)N2OS(=O)(=O)O` [Avibactam], in the assay with E. coli (CTX-M-15), the “MIC of aztreonam with beta-lactamase inhibitor” value is 0.125 µg/mL, the “Activity of Beta-Lactam 5 with beta-lactamase inhibitor” value stood at 0.25 µg/mL, the “MIC of ceftazidime with beta-lactamase inhibitor” value was 0.25 µg/mL and the “MIC of meropenem with beta-lactamase inhibitor” value was not above 0.06 µg/mL. Moreover, in the assay with E. coli (KPC-2), the “MIC of aztreonam with beta-lactamase inhibitor” value amounted to 0.125 µg/mL, the “Activity of Beta-Lactam 5 with beta-lactamase inhibitor” value came to 0.125 µg/mL, the “MIC of ceftazidime with beta-lactamase inhibitor” value turned out to be 0.25 µg/mL and the “MIC of meropenem with beta-lactamase inhibitor” value is not above 0.06 µg/mL. Besides, in the assay on E. coli (SHV-12), the “MIC of aztreonam with beta-lactamase inhibitor” value was determined as 1 µg/mL, the “Activity of Beta-Lactam 5 with beta-lactamase inhibitor” value was 0.125 µg/mL, the “MIC of ceftazidime with beta-lactamase inhibitor” value was 0.5 µg/mL and the “MIC of meropenem with beta-lactamase inhibitor” value is not above 0.06 µg/mL. Further, in the assay with E. coli (TEM-10), the “MIC of aztreonam with beta-lactamase inhibitor” value was found to be 0.25 µg/mL, the “Activity of Beta-Lactam 5 with beta-lactamase inhibitor” value stood at 0.125 µg/mL, the “MIC of ceftazidime with beta-lactamase inhibitor” value was found to be 1 µg/mL and the “MIC of meropenem with beta-lactamase inhibitor” value was not above 0.06 µg/mL. Further, in the assay on E. coli (OXA-18), the “MIC of aztreonam with beta-lactamase inhibitor” value was 1 µg/mL, the “Activity of Beta-Lactam 5 with beta-lactamase inhibitor” value was found to be 0.125 µg/mL, the “MIC of ceftazidime with beta-lactamase inhibitor” value turned out to be 0.5 µg/mL and the “MIC of meropenem with beta-lactamase inhibitor” value is not above 0.06 µg/mL. Moreover, the “MIC of piperacillin with beta-lactamase inhibitor” value in the assay with E. coli (OXA-18) came out at 2 µg/mL. Further, the direct antibacterial activity result in assay [2] was “exhibit direct antibacterial activity”.

`O=C(NC1CCNCC1)[C@@H]1CC[C@@H]2CN1C(=O)N2OS(=O)(=O)O` [Relebactam]: in the assay on E. coli (CTX-M-15), the “MIC of aztreonam with beta-lactamase inhibitor” value came to 0.5 µg/mL, the “Activity of Beta-Lactam 5 with beta-lactamase inhibitor” value stood at 0.25 µg/mL, the “MIC of ceftazidime with beta-lactamase inhibitor” value worked out at 0.5 µg/mL and the “MIC of meropenem with beta-lactamase inhibitor” value is not above 0.06 µg/mL. Moreover, in the assay with E. coli (KPC-2), the “MIC of aztreonam with beta-lactamase inhibitor” value was 1 µg/mL, the “Activity of Beta-Lactam 5 with beta-lactamase inhibitor” value is 0.125 µg/mL, the “MIC of ceftazidime with beta-lactamase inhibitor” value was found to be 0.25 µg/mL and the “MIC of meropenem with beta-lactamase inhibitor” value was not above 0.06 µg/mL. In addition, in the assay with E. coli (SHV-12), the “MIC of aztreonam with beta-lactamase inhibitor” value was found to be 32 µg/mL, the “Activity of Beta-Lactam 5 with beta-lactamase inhibitor” value came to 0.125 µg/mL, the “MIC of ceftazidime with beta-lactamase inhibitor” value amounted to 8 µg/mL and the “MIC of meropenem with beta-lactamase inhibitor” value was not above 0.06 µg/mL. In the assay with E. coli (TEM-10), the “MIC of aztreonam with beta-lactamase inhibitor” value was found to be 2 µg/mL, the “Activity of Beta-Lactam 5 with beta-lactamase inhibitor” value stood at 0.25 µg/mL, the “MIC of ceftazidime with beta-lactamase inhibitor” value is 8 µg/mL and the “MIC of meropenem with beta-lactamase inhibitor” value was not above 0.06 µg/mL. Also, in the assay on E. coli (OXA-18), the “MIC of aztreonam with beta-lactamase inhibitor” value is more than 64 µg/mL, the “Activity of Beta-Lactam 5 with beta-lactamase inhibitor” value was determined as 0.25 µg/mL, the “MIC of ceftazidime with beta-lactamase inhibitor” value was more than 64 µg/mL and the “MIC of meropenem with beta-lactamase inhibitor” value is not above 0.06 µg/mL. In addition, the “MIC of piperacillin with beta-lactamase inhibitor” value with E. coli (OXA-18) was more than 32 µg/mL.
